In patent US7902354B2, “Lapachone compounds and methods of use thereof” (ArQule, Inc., priority 2006, dated 2011):

How the values were obtained:
[1] = test system: A549 human lung carcinoma cells; assay: MTS cell viability assay, A549 human lung carcinoma cells; type: cell-based; settings: A549, 4 h compound incubation, MTS, read-out: IC50 Values, Cancerous Cells, Lung A549
[2] = test system: K-562 human leukemia cells; assay: MTS cell viability assay, K-562 human leukemia cells; type: cell-based; settings: K562, K-562, 4 h compound incubation, MTS, read-out: IC50 Values, Cancerous Cells, Leukemia K-562
[3] = test system: E2F-1; assay: E2F-1 induction in HT-29 cells; type: cell-based, human
Text: Another effect of the compounds of the present invention is the induction or elevation of activity (e.g. elevation of the level) of one or more checkpoint molecules (i.e., a member of the E2F family of transcription factors). Studies have shown that β-lapachone induces activation of E2F1 checkpoint pathway in nuclei of cancer cells but not in normal cells, resulting in the arrest of cancer cells in G1 and/or S phase. Several compounds of the present invention were effective in activating the E2F1 checkpoint pathway (e.g. elevation of E2F1 levels), thus causing G1 and/or S phase arrest. Furthermore, the compounds of the present invention have no significant toxic effects on normal cells (See. Table 1). The assays of the present invention as shown in Table 1 and methods of measuring induction of E2F1 activity and elevation of E2F1 levels can be carried out following the descriptions found in Li et al., (2003) Proc Natl Acad Sci USA. 100(5): 2674-8 and U.S. Patent Application Publication No. 2002/0169135, both incorporated herein by reference.

[4] = test system: HT-29 human colon carcinoma cells; assay: MTS cell viability assay, HT-29 human colon carcinoma cells; type: cell-based; settings: 4 h compound incubation, read-out: IC50 Values, Cancerous Cells, Colon HT-29
[5] = test system: DU-145 human prostate carcinoma cells; assay: MTS cell viability assay, DU-145 human prostate carcinoma cells; type: cell-based; settings: DU-145, 4 h compound incubation, MTS, read-out: IC50 Values, Cancerous Cells, Prostate DU-145
[6] = test system: NCM-460 normal colon epithelial cells; assay: MTS cell viability assay, NCM-460 normal colon epithelial cells; type: cell-based; settings: for IC50: Homo sapiens, NCM460, NCM-460, 4 h compound incubation, MTS, read-out: IC50 Values, Normal Cells, Colon NCM-460; for Fold Selectivity (NCM-460/DLD1): ratio of IC50 NCM-460 / DLD1
[7] = test system: PACA-2 human pancreatic carcinoma cells; assay: MTS cell viability assay, PACA-2 human pancreatic carcinoma cells; type: cell-based; settings: PACA-2, 4 h compound incubation, MTS, read-out: IC50 Values, Cancerous Cells, Pancreas PACA-2
[8] = test system: DLD-1 human colon carcinoma cells; assay: MTS cell viability assay, DLD-1 human colon carcinoma cells; type: cell-based; settings: DLD-1, 4 h compound incubation, MTS, read-out: IC50 Values, Cancerous Cells, Colon DLD-1

Compound | IC50 [1] [µM] | IC50 [2] [µM] | IC50 [4] [µM] | IC50 [5] [µM] | IC50 [7] [µM] | IC50 [8] [µM] | E2F-1 Induction (HT-29) [3] | IC50 [6] [µM] | Fold Selectivity (NCM-460/DLD1) [6]
O=C1C(=O)c2ccccc2C2=C1SCC1(CCN(CC(O)Cc3ccccc3)CC1)O2 (stereo not shown) [Compound 163, 1′-(2-hydroxy-3-phenylpropyl)spiro[naphtho[1,2-b][1,4]oxathiine-2,4′-piperidine]-5,6-dione] | 4.31 | 1 | 4.48 | 1.38 | 0.764 | 0.714 | Yes | 2.84 | 4.0
CC(C)COCC(O)CN1CCC2(CC1)CSC1=C(O2)c2ccccc2C(=O)C1=O (stereo not shown) [Compound 174, 1′-(2-hydroxy-3-isobutoxypropyl)spiro[naphtho[1,2-b][1,4]oxathiine-2,4′-piperidine]-5,6-dione] | 6.29 | 1.61 | – | 1.55 | 1.25 | 1.3 | – | 3.2 | 2.5
CC(O)(CN1CCC2(CC1)CSC1=C(O2)c2ccccc2C(=O)C1=O)c1ccccc1 (stereo not shown) [Compound 177, 1′-(2-hydroxy-2-phenylpropyl)spiro[naphtho[1,2-b][1,4]oxathiine-2,4′-piperidine]-5,6-dione] | 14.9 | 8.99 | – | 4.55 | 4.18 | 6.22 | – | 20.5 | 3.3
O=C1C(=O)c2ccccc2C2=C1SCC1(CCN(c3cnccn3)CC1)O2 [Compound 229, 1′-pyrazin-2-ylspiro[naphtho[1,2-b][1,4]oxathiine-2,4′-piperidine]-5,6-dione] | 22.6 | 4.14 | – | 4.63 | 4.33 | 4.27 | – | 12.8 | 3.0
O=C1C(=O)c2ccccc2C2=C1SCC1(CCN(C(=O)C3CCCCC3C(=O)O)CC1)O2 (stereo not shown) [Compound 231, 2-[(5,6-dioxo-5,6-dihydro-1′H-spiro[naphtho[1.2-b][1,4]oxathiine-2,4′-piperidin]-1′-yl)carbonyl]cyclohexanecarboxylic acid] | 27.9 | 10.6 | – | 12 | 4.84 | 9.27 | – | 12.3 | 1.3
O=C(O)CCC(=O)N1CCC2(CC1)CSC1=C(O2)c2ccccc2C(=O)C1=O [Compound 233, 4-(5,6-dioxo-5,6-dihydro-1′H-spiro[naphtho[1,2-b][1,4]oxathiine-2,4′-piperidin]-1′-yl)-4-oxobutanoic acid] | > 100 | 62.8 | – | 40.4 | 56.3 | 64.3 | – | 48.8 | 0.8
O=C(O)CSCC(=O)N1CCC2(CC1)CSC1=C(O2)c2ccccc2C(=O)C1=O [Compound 234, {[2-(5,6-dioxo-5,6-dihydro-1′H-spiro[naphtho[1,2-b][1,4]oxathiine-2,4′-piperidine]-1′-yl)-2-oxoethyl]thio}acetic acid] | > 100 | > 100 | – | > 100 | 55.6 | > 100 | – | > 100 | –
O=C1C(=O)c2ccccc2C2=C1SCC1(CCN(C(=O)C3CCC3C(=O)O)CC1)O2 (stereo not shown) [Compound 235, 2-[(5,6-dioxo-5,6-dihydro-1′H-spiro[naphtho[1,2-b][1,4]oxathiine-2,4′-piperidin]-1′-yl)carbonyl]cyclobutanecarboxylic acid] | > 100 | 52.4 | – | 54.4 | 48.5 | 69.6 | – | 85.8 | 1.2
O=C1C(=O)c2ccccc2C2=C1SCC1(CCN(C3CCCCC3)CC1)O2 [Compound 258, 1′-cyclohexylspiro[naphtho[1,2-b][1,4]oxathiine-2,4′-piperidine]-5,6-dione] | 5.42 | 1.49 | – | 3.9 | 1.99 | 1.49 | – | 5.91 | 4.0

The next lines start with results.

IC50 [1] [µM] | IC50 [2] [µM] | IC50 [4] [µM] | IC50 [5] [µM] | IC50 [7] [µM] | IC50 [8] [µM] | Compound | E2F-1 Induction (HT-29) [3] | IC50 [6] [µM] | Fold Selectivity (NCM-460/DLD1) [6]
3.83 | 1.44 | 2.21 | 1.37 | 1.06 | 1.42 | O=C1C(=O)c2ccccc2C2=C1SCC1(CCN(C(=O)c3ccc(Cl)c(Cl)c3)CC1)O2 [Compound 53, 1′-(3,4-dichlorobenzoyl)spiro[naphtho[1,2-b][1,4]oxathiine-2,4′-piperidine]-5,6-dione] | YES | 8.52 | 6.0
4.57 | 3.93 | 5.74 | 3.85 | 3.36 | 2.1 | O=C1C(=O)c2ccccc2C2=C1SCC1(CCN(C(=O)c3cccc(Cl)c3)CC1)O2 [Compound 55, 1′-(3-chlorobenzoyl)spiro[naphtho[1,2-b][1,4]oxathiine-2,4′-piperidine]-5,6-dione] | Yes | 11.2 | 5.3
> 100 | 36.3 | 20.5 | 20 | 26.7 | 31.7 | O=C1C(=O)c2ccccc2C2=C1SCC1(CCN(C(=O)Oc3cccc(C(F)(F)F)c3)CC1)O2 [Compound 96, 3-(trifluoromethyl)phenyl 5,6-dioxo-5,6-dihydro-1′H-spiro[naphtho[1,2-b][1,4]oxathiine-2,4′-piperidine]-1′-carboxylate] | Yes | 100 | 3.2
26 | 4.28 | 12.6 | 6.59 | 4.93 | 4.39 | O=C1C(=O)c2ccccc2C2=C1SCC1(CCN(C(=O)Oc3ccc(F)cc3)CC1)O2 [Compound 97, 4-fluorophenyl 5,6-dioxo-5,6-dihydro-1′H-spiro[naphtho[1,2-b][1,4]oxathiine-2,4′-piperidine]-1′-carboxylate] | YES | 13.3 | 3.0
66.9 | 4.44 | 7.05 | 6.75 | 4.12 | 3.98 | O=C1C(=O)c2ccccc2C2=C1SCC1(CCN(Cc3c(F)cccc3Cl)CC1)O2 [Compound 129, 1′-(2-chloro-6-fluorobenzyl)spiro[naphtho[1,2-b][1,4]oxathiine-2,4′-piperidine]-5,6-dione] | Yes | 16.5 | 4.1
7.29 | 3.27 | – | 1.59 | 1.39 | 1.42 | COc1ccc(OCC(O)CN2CCC3(CC2)CSC2=C(O3)c3ccccc3C(=O)C2=O)cc1 (stereo not shown) [Compound 175, 1′-[2-hydroxy-3-(4-methoxyphenoxy)propyl]spiro[naphtho[1,2-b][1,4]oxathiine-2,4′-piperidine]-5,6-dione] | – | 6.12 | 4.3
5.14 | 4.76 | – | 2.43 | 3 | 2.4 | O=C1C(=O)c2ccccc2C2=C1SCC1(CCN(CC(O)COc3ccc(Cl)cc3)CC1)O2 (stereo not shown) [Compound 176, 1′-[3-(4-chlorophenoxy)-2-hydroxypropyl]spiro[naphtho[1,2-b][1,4]oxathiine-2,4′-piperidine]-5,6-dione] | – | 11 | 4.6
4.93 | 1.32 | 3.11 | 1.52 | 0.909 | 0.734 | O=C1C(=O)c2ccccc2C2=C1SCC1(CCN(C[C@@H](O)COc3ccc(F)cc3)CC1)O2 [Compound 181, 1′-[(2R)-3-(4-fluorophenoxy)-2-hydroxypropyl]spiro[naphtho[1,2-b][1,4]oxathiine-2,4′-piperidine]-5,6-dione] | Yes | 4.53 | 6.2
> 100 | 49.3 | – | 61.3 | 48 | 66.1 | O=C1C(=O)c2ccccc2C2=C1SCC1(CCN(C(=O)c3cnccc3C(=O)O)CC1)O2 [Compound 237, 3-[(5,6-dioxo-5,6-dihydro-1′H-spiro[naphtho[1,2-b][1,4]oxathiine-2,4′-piperidin]-1′-yl)carbonyl]isonicotinic acid] | – | 94.2 | 1.4
